Measurements as given in publication PMC11819603, “Development of a reliable, sensitive, and convenient assay for the discovery of new eIF5A hypusination inhibitors” (PLOS ONE, 2025).
Like-named read-outs stand apart in the source and are kept apart here.

Columns and labels:
DHPS [1] = molecular target: T1, DHPS (Homo sapiens, UniProt P49366); assay: Hyp'Assay without DOHH: deoxyhypusination of eIF5A revealed with Hpu98 antibody; type: biochemical
T1 construct: host or cells: E. coli BL21 (DE3)
T1 sequence (P49366 1-369): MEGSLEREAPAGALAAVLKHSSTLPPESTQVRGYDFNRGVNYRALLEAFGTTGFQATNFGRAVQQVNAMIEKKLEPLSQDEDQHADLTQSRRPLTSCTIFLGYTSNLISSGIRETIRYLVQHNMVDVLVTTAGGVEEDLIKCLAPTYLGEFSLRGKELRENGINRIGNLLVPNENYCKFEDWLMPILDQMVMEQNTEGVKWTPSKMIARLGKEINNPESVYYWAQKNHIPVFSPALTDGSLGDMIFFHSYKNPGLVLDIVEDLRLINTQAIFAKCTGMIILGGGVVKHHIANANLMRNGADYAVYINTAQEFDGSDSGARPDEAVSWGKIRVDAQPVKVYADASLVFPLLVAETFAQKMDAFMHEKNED
Source text: To address this issue, we compared the ability of GC7 to inhibit DHPS or DOHH by adding GC7 during the first step of the Hyp’Assay; when DHPS mediates the deoxyhypusination reaction (Fig 2A), or only during the second step, when DOHH hydroxylate deoxyhypusinated eIF5A. […] This confirms the specificity of GC7 towards DHPS. When finding new hypusination inhibitors adding them during the first or the second step of the Hyp’Assay will allow us to determine if the inhibition affects DHPS or DOHH. Another way to discriminate between DHPS or DOHH inhibitors would be to use Hpu98, an antibody that recognized both hypusinated and deoxyhypusinated eIF5A, instead of Hpu24, which is specific for hypusinated eIF5A [18]. […] We performed a new Hyp’Assay by omitting DOHH in the reaction mix and using the Hpu98 antibody. First, we performed a dose response experiment with spermidine at pH: 8.0 and 9.0 (Fig 3E). The Hyp’Assay allows the detection of deoxyhypusinated eIF5A in a spermidine-dependent manner. Under these conditions, deoxyhypusination was equally efficient at both pH tested. […] We also tested the ability of GC7 (Fig 3F) and CPX or EDTA (Fig 3G) to inhibit DHPS. […] This provided us with another method to distinguish between DHPS and DOHH inhibitors.
(§1) The cell-free reaction described in 4.4 is performed in triplicates in a 96-wells plate (MaxiSorp, ThermoFisher) in the presence of 3 μg of eIF5A, 2 μg of DHPS, and 2 μg of DOHH by well. The reaction product, hypusinated eIF5A, is adsorbed onto the plate overnight at 4°C. The plate is washed (100 μL/well) thrice with PBS-T (PBS– 0.05% Tween20), then saturated with 1% non-fat dry milk in PBS-T for 2 h at room temperature. The plate is washed thrice with PBS-T and incubated overnight at 4°C with the anti-hypusine antibody (1:2000 in saturation buffer, 50 μL/well). The next day and after 5 washes with PBS-T, HRP-coupled anti-rabbit secondary antibody diluted 1:5000 in saturation buffer (50 μL/well) is added for 2 h at room temperature.

human DHPS = conditions: read-out: Km of human DHPS for spermidine, cited from earlier work
DHPS [2] = molecular target: T1, DHPS; assay: Hyp'Assay: cell-free eIF5A hypusination in 96-well plates (recombinant eIF5A, DHPS, DOHH; anti-hypusine antibody Hpu24), substance present in the DHPS step; type: biochemical
Description: The principle of the Hyp’Assay (Fig 2A) is to perform eIF5A hypusination reaction in 96-well plates, allow eIF5A to adsorb to the plate, incubate with an anti-hypusine antibody and a secondary antibody conjugated to HRP and reveal hypusination using TMB as a substrate.
(§2) […] Then 10 μL containing 1 μg of DOHH with 10 μM Fe^2+ (H8FeN2O8S2^. 6H2O) were added. After 1 h proteins were analyzed by Western Blot using antibodies toward DHPS, DOHH, Hypusine, and eIF5A.
as §1

DOHH = molecular target: T2, DOHH (Homo sapiens, UniProt Q9BU89); assay: Hyp'Assay, substance added after the deoxyhypusination reaction (DOHH step); type: biochemical; conditions: control 100,0
T2 construct: pelB leader (N); host or cells: E. coli BL21 (DE3)
T2 sequence (Q9BU89 1-302): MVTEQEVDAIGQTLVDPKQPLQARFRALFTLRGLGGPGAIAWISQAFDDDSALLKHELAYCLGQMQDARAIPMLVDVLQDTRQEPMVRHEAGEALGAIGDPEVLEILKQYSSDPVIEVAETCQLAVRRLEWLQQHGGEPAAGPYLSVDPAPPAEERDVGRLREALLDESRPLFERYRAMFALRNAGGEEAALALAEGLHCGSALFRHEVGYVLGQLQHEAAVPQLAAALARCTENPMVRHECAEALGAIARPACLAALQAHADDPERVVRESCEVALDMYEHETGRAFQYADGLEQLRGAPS
Description: We then tested the ability of DOHH inhibitors to inhibit eIF5A hypusination using the Hyp’Assay. During the Hyp’Assay, DOHH inhibitors were added after the deoxyhypusination reaction.
To address this issue, we compared the ability of GC7 to inhibit DHPS or DOHH by adding GC7 during the first step of the Hyp’Assay; when DHPS mediates the deoxyhypusination reaction (Fig 2A), or only during the second step, when DOHH hydroxylate deoxyhypusinated eIF5A. […] When finding new hypusination inhibitors adding them during the first or the second step of the Hyp’Assay will allow us to determine if the inhibition affects DHPS or DOHH. Another way to discriminate between DHPS or DOHH inhibitors would be to use Hpu98, an antibody that recognized both hypusinated and deoxyhypusinated eIF5A, instead of Hpu24, which is specific for hypusinated eIF5A [18]. […] We performed a new Hyp’Assay by omitting DOHH in the reaction mix and using the Hpu98 antibody. First, we performed a dose response experiment with spermidine at pH: 8.0 and 9.0 (Fig 3E). […] We also tested the ability of GC7 (Fig 3F) and CPX or EDTA (Fig 3G) to inhibit DHPS.
as §2, §1

Q: Which results are given for `NCCCCNCCCN` [spermidine]?
A: deoxyhypusination signal, Mean (quantification from Figure 3E) (DHPS [1]; pH: 8.0, spermidine 1 µM as substrate): 0,00; deoxyhypusination signal, Mean (quantification from Figure 3E) (DHPS [1]; pH: 8.0, spermidine 10 µM as substrate): 50,47; deoxyhypusination signal, Mean (quantification from Figure 3E) (DHPS [1]; pH: 8.0, spermidine 100 µM as substrate): 87,29; deoxyhypusination signal, Mean (quantification from Figure 3E) (DHPS [1]; pH: 8.0, spermidine 1000 µM as substrate): 98,05; deoxyhypusination signal, Mean (quantification from Figure 3E) (DHPS [1]; pH: 8.0, spermidine 10000 µM as substrate): 100,00; deoxyhypusination signal, Mean (quantification from Figure 3E) (DHPS [1]; pH: 9.0, spermidine 1 µM as substrate): 0,00; deoxyhypusination signal, Mean (quantification from Figure 3E) (DHPS [1]; pH: 9.0, spermidine 10 µM as substrate): 51,14; deoxyhypusination signal, Mean (quantification from Figure 3E) (DHPS [1]; pH: 9.0, spermidine 100 µM as substrate): 85,89; Km (human DHPS; ref 23): 4 µM; Km (human DHPS; ref 24): 7.6 µM; EC50 (DHPS [2]): 5 µM; hypusination signal with the substance as substrate, Mean (quantification from Figure S3) (DHPS [2]; substrate concentration 0,01 (mM)): 1,46; hypusination signal with the substance as substrate, Mean (quantification from Figure S3) (DHPS [2]; substrate concentration 0,1 (mM)): 31,22; hypusination signal with the substance as substrate, Mean (quantification from Figure S3) (DHPS [2]; substrate concentration 0,0001 (mM)): -0,19; hypusination signal with the substance as substrate, Mean (quantification from Figure S3) (DHPS [2]; substrate concentration 0,001 (mM)): -0,21; hypusination signal with the substance as substrate, Mean (quantification from Figure S3) (DHPS [2]; substrate concentration 1 (mM)): 68,32; hypusination signal with the substance as substrate, Mean (quantification from Figure S3) (DHPS [2]; substrate concentration 10 (mM)): 100,00; hypusination signal with the substance as substrate, Mean (quantification from Figure S3) (DHPS [2]; substrate concentration 100 (mM)): 86,96; hypusination signal with the substance as substrate, Mean (quantification from Figure S3) (DHPS [2]; substrate concentration 1000 (mM)): 66,59; hypusination signal, Mean (quantification from Figure 3C) (DOHH; concentration 1 (no unit on page; Fig 3C dose-response 0 to 100 μM)): 84,83; hypusination signal, Mean (quantification from Figure 3C) (DOHH; concentration 10 (no unit on page; Fig 3C dose-response 0 to 100 μM)): 82,59
